Source: patent publication US6423494B1, “DR6 and uses thereof” (Millennium Pharmaceuticals, Inc., priority 1999, dated 2002)

system: colon cancer cell line SW-620; assay: Drug sensitivity of colon cancer cell line SW-620 (NCI60 panel); type: cell-based, human; conditions: SW-620 colon cancer cell line, in which DR6 does not appear to be expressed (Northern analysis)
Experimental: In order to identify genes involved in drug resistance, the expression various genes in drug resistant cancer cells was measured. The drug resistant cancer cell lines used were all members of the NCI60 panel of drug resistant cell lines. The cell lines in this panel are resistant to one or more chemotherapeutic compounds.

SMILES	sensitivity of the cell line to the drug
N.N.[Cl][Pt][Cl] [cisplatin]	relatively sensitive
COc1cc([C@@H]2c3cc4c(cc3[C@@H](O[C@@H]3O[C@@H]5CO[C@@H](C)O[C@H]5[C@H](O)[C@H]3O)[C@H]3COC(=O)[C@H]23)OCO4)cc(OC)c1O [etoposide]	relatively sensitive
COc1cccc2c1C(=O)c1c(O)c3c(c(O)c1C2=O)C[C@@](O)(C(=O)CO)C[C@@H]3O[C@H]1C[C@H](N)[C@H](O)[C@H](C)O1 [doxorubicin]	relatively sensitive
CC[C@@]1(O)C(=O)OCc2c1cc1n(c2=O)Cc2cc3c(CN(C)C)c(O)ccc3nc2-1 [topotecan]	relatively sensitive
O=C(O)CCCc1ccc(N(CCCl)CCCl)cc1 [chlorambucil]	relatively sensitive
